The values below come from PubChem BioAssay AID1508610 (The Scripps Research Institute Molecular Screening Center, 2020).

Active and inactive are the calls of the source. How the calls were made is not given here.

The target of the assay is G-protein coupled receptor 151 (Homo sapiens) (UniProt Q8TDV0). As to the kind of experiment: GPR151 activator potency, dose response, cell-based (AID 1508610). The note with it: cell-based GPR151 activation reporter.
Chain of G-protein coupled receptor 151 (Homo sapiens) (Q8TDV0 whole entry, looked up): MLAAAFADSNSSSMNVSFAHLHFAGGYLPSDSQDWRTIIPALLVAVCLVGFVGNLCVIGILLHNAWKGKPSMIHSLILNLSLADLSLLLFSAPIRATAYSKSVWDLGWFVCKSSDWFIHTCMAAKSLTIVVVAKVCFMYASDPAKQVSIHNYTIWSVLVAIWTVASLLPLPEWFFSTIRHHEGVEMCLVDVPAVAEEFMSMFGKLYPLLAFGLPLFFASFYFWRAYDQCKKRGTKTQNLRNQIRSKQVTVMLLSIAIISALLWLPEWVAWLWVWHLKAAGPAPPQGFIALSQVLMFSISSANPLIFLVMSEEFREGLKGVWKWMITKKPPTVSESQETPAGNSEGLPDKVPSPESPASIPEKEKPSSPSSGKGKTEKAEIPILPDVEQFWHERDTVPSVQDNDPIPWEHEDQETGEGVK
Take `CCC(C)NC(=O)C1=C(C)C(=O)OC12CCCCC2` (configuration not stated): the EC50 is > 28 µM (inactive).

For the molecule `O=C1c2ccccc2C(Nc2ccc(Cl)cc2)N1c1cccnc1` (configuration not stated), the EC50 was > 28 µM (inactive).

As to `CCn1c(/C=C/C=C2\N(C)c3ccccc3C2(C)C)[n+](Cc2ccccc2)c2ccccc21`, the 50% effective concentration (EC50) is 2.75 µM.

On to `COc1ccc(-c2noc(-c3cc4ccc(OC)cc4oc3=O)n2)cc1`, for which the EC50 is > 28 µM (inactive).

For the molecule `CCc1cc2c(cc3c(=O)n(CC(=O)NCc4ccccc4Br)ncn32)s1`, the EC50 is > 28 µM (inactive).

For `COc1ccc(NC(=O)CCC(=O)Oc2ccc(C)cc2)cc1`, the EC50 is > 28 µM (inactive).

In the case of `CC(=O)c1ccc(OC(=O)c2cccc(Br)c2)cc1`, the EC50 is > 25.9 µM (inactive).

For the molecule `Cc1ccn2cc(-c3ccc(F)cc3)nc2c1`, the EC50 is > 30.9 µM (inactive).

Turning to `O=C(CCCC(=O)N/N=C/c1cccc([N+](=O)[O-])c1)N/N=C/c1cccc([N+](=O)[O-])c1`, the EC50 is > 28 µM (inactive).

In the case of `COC(=O)c1c(NC(=O)c2cc(-c3ccc(CC(C)C)cc3)nc3ccccc23)sc(C)c1-c1ccccc1`, the EC50 was > 23.4 µM (inactive).

As for `Cc1ccc(S(=O)(=O)Cn2nnnc2CN2CCN(c3ccccc3F)CC2)cc1`, the EC50 was > 28 µM (inactive).

For `COc1ccc(-c2ccc(C(=O)Nc3ccc(NC(C)=O)cc3)s2)cc1`, the EC50 is > 26.6 µM (inactive).

As for `COc1cc(S(=O)(=O)N2CCN(c3ccc(C)c(C)c3)CC2)ccc1F`, the EC50 is > 28 µM (inactive).

For `COc1ccccc1N(CC(=O)Nc1ccccc1C(=O)NCC(C)C)S(C)(=O)=O`, the EC50 was > 28 µM (inactive).

In the case of `COc1ccc(-c2nc(-c3ccccn3)no2)cc1`, the EC50 was > 35.9 µM (inactive).

Turning to `Cc1ccsc1C(=O)Nc1nc2ccc(S(C)(=O)=O)cc2s1`, the EC50 was > 28.6 µM (inactive).

On to `O=C(O)c1ccc(OCc2ccnc(Cl)c2)cc1`, for which the EC50 was > 28 µM (inactive).

As to `Cc1ccc2cc(CN(CC3CCCO3)C(=O)C3CCC3)c3nnnn3c2c1` (configuration not stated), the EC50 was > 28 µM (inactive).

In the case of `COCCNCCOc1ccc(C)cc1C`, the EC50 was > 28 µM (inactive).

As to `C=CCN(c1ccc(C(=O)Nc2ccc(Cl)cc2)cc1)S(C)(=O)=O`, the EC50 was > 28 µM (inactive).

For `COc1cccc(OC)c1C(=O)Nc1ccc(Br)cn1`, the EC50 is > 28 µM (inactive).

On to `COc1ccc(-c2ccc(C(=O)NCc3cccnc3)s2)cc1`, for which the EC50 was > 28.2 µM (inactive).

With `Cc1ccc(/C(=N/NC(=O)Cc2ccccc2)C23CN4CN(CN(C4)C2)C3)cc1`, the EC50 was > 28 µM (inactive).

On to `Cc1nn(Cc2ccc(F)cc2)c(C)c1N`, for which the EC50 was > 28 µM (inactive).

For `O=C(Oc1ccc2cc(Br)ccc2c1)c1ccco1`, the EC50 is > 25.9 µM (inactive).

In the case of `COc1cccc(/C=C/c2nc3ccccc3c(=O)[nH]2)c1O`, the EC50 was > 32.3 µM (inactive).

As for `NP(=O)(Oc1ccc(Cl)cc1)Oc1ccc(Cl)cc1`, the EC50 was > 28.2 µM (inactive).

`COc1ccc(-c2ccc(C(=O)NCCO)s2)cc1`: the EC50 is > 27.9 µM (inactive).

Take `Cc1ccc(N(CC(=O)NCCC2=CCCCC2)S(C)(=O)=O)cc1Cl`: the EC50 is > 28 µM (inactive).

Consider `CCC(NS(=O)(=O)c1ccc(Cl)c([N+](=O)[O-])c1)C12CC3CC(CC(C3)C1)C2` (configuration not stated), for which the EC50 was > 26.9 µM (inactive).

For the molecule `c1cncc(-c2noc(C34CC5CC(CC(C5)C3)C4)n2)c1`, the EC50 is > 26.4 µM (inactive).

For `O=C(Nc1nc(-c2ccc(I)cc2)cs1)c1ccc(Cl)s1`, the EC50 was > 24.9 µM (inactive).

For the molecule `COc1ccc(-c2ccc(/C=N/N3C(=O)C4C5C=CC(C6CC56)C4C3=O)o2)c([N+](=O)[O-])c1` (configuration not stated), the EC50 was > 28 µM (inactive).

Consider `CC(C)NC(=O)CSc1nnc(-c2cccnc2)n1CCc1ccccc1`, for which the EC50 was > 28 µM (inactive).

With `Cc1c(N=Nc2c(O)[nH]c(=S)[nH]c2=O)c(=O)n(-c2ccccc2)n1C`, the EC50 was > 28 µM (inactive).

Regarding `CC(=O)Oc1cccc(N2C(=O)C3C4c5ccccc5C(C)(c5ccccc54)C3C2=O)c1` (configuration not stated), the EC50 is 1e-05 µM.

In the case of `Cc1cc2c(cc1C)C(c1cc([N+](=O)[O-])ccc1Cl)CC(=O)N2` (configuration not stated), the EC50 was > 33.6 µM (inactive).

For `Cc1cc2nc(-c3cccnc3Cl)[nH]c2cc1C`, the EC50 was > 26.1 µM (inactive).

Regarding `Cc1nc2c(C(=O)NCc3ccccn3)cnn2c(C)c1Cc1cccc(Cl)c1`, the EC50 is > 29.5 µM (inactive).

For the molecule `COc1ccccc1Cn1c(=S)[nH]c2cc(C(=O)N3CCC(C(N)=O)(N4CCCCC4)CC3)ccc2c1=O`, the EC50 result was “inactive”.

Turning to `COc1cc(OC)cc(C(=O)NC2CCCCCCC2)c1`, the EC50 was > 39.8 µM (inactive).

For `C=CCOC(=O)C1=C(C)N2CCSC2=C(C#N)C1c1ccco1` (configuration not stated), the EC50 was > 32 µM (inactive).

Regarding `Cc1ccc(Nc2nc(N(C)C)nc3c2cnn3C)cc1C`, the EC50 was > 28.4 µM (inactive).

For `O=C(/C=C/c1ccc(O)cc1)c1ccc(O)cc1O`, the EC50 was > 28 µM (inactive).

In the case of `Cc1ccccc1-n1c(=O)cc(NCCCn2ccnc2)[nH]c1=O`, the EC50 is > 28 µM (inactive).

As to `Cc1nc(NC(=O)CSc2ccc(-c3nc4ccccc4[nH]3)cn2)sc1C`, the EC50 is > 28 µM (inactive).

For `NC(=O)C1CCN(C(=O)c2ccc3nc(N4CCCCC4)sc3c2)CC1`, the EC50 was > 28 µM (inactive).

With `COc1cccc(-c2nc(-c3ccccn3)no2)c1`, the EC50 is > 37.5 µM (inactive).

In the case of `O=C(O)c1ccc(/C=C2\SC(=S)N(CCS(=O)(=O)O)C2=O)cc1`, the EC50 is > 28.5 µM (inactive).

On to `Cc1cc2nc(-c3ccc[nH]c3=O)[nH]c2cc1C`, for which the EC50 is > 28.1 µM (inactive).

Take `NC[C@H]1O[C@H](O[C@H]2[C@H](O)[C@@H](O[C@H]3O[C@H](CO)[C@@H](O)[C@H](N)[C@H]3O)[C@H](N)C[C@@H]2N)[C@H](N)C[C@@H]1O`: the EC50 is > 28 µM (inactive).

For the molecule `COc1ccc(C(=O)Nc2ccc(-n3nncc3C(C)(C)C)cc2)cc1`, the EC50 is > 31.7 µM (inactive).

Take `CON(C)C(=O)c1ccc(OCc2ccnc(Cl)c2)cc1`: the EC50 was > 28 µM (inactive).

Turning to `COc1ccc(CCn2c(=S)[nH]c3cc(C(=O)N4CCOCC4)ccc3c2=O)cc1OC`, the EC50 is > 22.2 µM (inactive).

With `O=C(COc1ccc(C(=O)NCCc2ccccc2)cc1)Nc1ccccc1F`, the EC50 was > 28 µM (inactive).

With `O=C(Nc1cc(C(F)(F)F)ccc1F)C1CCCC1`, the EC50 was > 28 µM (inactive).

As to `CC1CCCC(NCc2c(C(=O)O)n(Cc3ccccc3F)c3ccccc23)C1C` (configuration not stated), the EC50 is > 28 µM (inactive).

As to `O=C1N[C@@H](Cc2ccc(Cl)cc2)C(=O)N2CCN(C(=O)c3cc(Cl)cc(Cl)c3)C[C@H]12`, the EC50 was > 28 µM (inactive).

`COc1cc(C2CC(=O)Nc3cc(C)c(C)cc32)cc(OC)c1OC` (configuration not stated): the EC50 is > 26.6 µM (inactive).

In the case of `O=C(O)c1cccc(NC(=O)c2ccc(Br)o2)c1`, the EC50 is > 28 µM (inactive).

`O=C(O)c1ccc(-n2cc(-c3cnccn3)cn2)cc1`: the EC50 is > 28 µM (inactive).

`CCN(CC)C(=O)c1cn(CCC#N)nc1-c1ccc(OC)c([N+](=O)[O-])c1`: the EC50 was > 28 µM (inactive).

`COc1ccc(/C=C/C(=O)Nc2ccccc2C(=O)O)cc1OC`: the EC50 is > 28 µM (inactive).

Take `c1ccc(Oc2nc(NC3CC3)c3ncn(-c4ccsc4)c3n2)cc1`: the EC50 entry is “inactive”.

For the molecule `COc1ccc(CCNc2ccnc(Nc3ccc(-n4ccnc4)cc3)n2)cc1`, the EC50 entry is “inactive”.

Regarding `CCOc1ccc(S(=O)(=O)N(CC(=O)NCCSc2ccccc2)c2ccccc2)cc1`, the EC50 was > 26.6 µM (inactive).

As for `COc1ccc(C(=O)Nc2nc(C)cs2)c(OC)n1`, the EC50 is > 28 µM (inactive).

For `C/C(=N\NC(=S)NCc1ccco1)c1cccc([N+](=O)[O-])c1`, the EC50 is > 28.2 µM (inactive).

On to `COC(=O)c1cccc(NC(=O)c2cccc(Br)c2)c1C`, for which the EC50 was > 28 µM (inactive).

Regarding `CCN(CC)C(=O)CN(c1ccccc1)S(=O)(=O)c1ccc(C)cc1`, the EC50 is > 28 µM (inactive).

In the case of `Cn1c(=O)[nH]c2nnc(-c3ccc(F)cc3)nc2c1=O`, the EC50 is > 28 µM (inactive).

On to `NC(=O)/C(=C\c1ccco1)NC(=O)c1ccccc1Br`, for which the EC50 was > 28 µM (inactive).

Take `O=C(Nc1ncc([N+](=O)[O-])s1)c1ccc(Cl)cc1Cl`: the EC50 was > 27.3 µM (inactive).

`CN1C(=O)C(=Cc2nc3ccccc3c(=O)n2-c2ccc([N+](=O)[O-])cc2)c2cc(Br)ccc21`: the EC50 was > 19.1 µM (inactive).

Turning to `Cc1ccc(-c2nc3ccccc3[nH]2)cc1`, the EC50 is > 35.1 µM (inactive).

As to `Cc1cc(Br)ccc1NC(=O)c1ccc(C#N)cc1F`, the EC50 was > 28 µM (inactive).

For `O=C(NCc1ccc(F)cc1)C(=O)Nc1cccc(Cl)c1`, the EC50 is > 28 µM (inactive).

As for `COc1ccc(-n2nc3c(c2NC(=O)c2c(F)cccc2F)CS(=O)(=O)C3)cc1`, the EC50 is > 31.2 µM (inactive).

Consider `N=c1sc2c(n1CC(=O)c1ccccc1)CCCC2`, for which the EC50 is > 27 µM (inactive).

In the case of `O=C(O)c1ccc2nc(-c3ccccc3)[nH]c2c1`, the EC50 is > 26.3 µM (inactive).

With `Cc1cc(N2CCCCC2)nc2ccc(NC(=O)c3cccc([N+](=O)[O-])c3)cc12`, the EC50 is > 29.2 µM (inactive).

On to `O=C(Nc1ncc(C(O)(C(F)(F)F)C(F)(F)F)s1)c1ccccc1Cl`, for which the EC50 is > 30.5 µM (inactive).

Turning to `COc1ccc(C(=O)Nc2cccc(C(=O)N3CCCC3)c2)cc1`, the EC50 is > 28 µM (inactive).

For the molecule `C#CCN1CCc2cc(OC)c(OC)cc2C1C` (configuration not stated), the EC50 is > 28 µM (inactive).

In the case of `O=C(O)CCC(NCC(O)Cn1c2ccccc2c2ccccc21)C(=O)O` (configuration not stated), the EC50 is > 28.7 µM (inactive).

In the case of `CCOc1ccc(NC(=O)C(=O)NCCN2CCN(S(=O)(=O)c3ccc4ccccc4c3)CC2)cc1`, the EC50 was > 18.8 µM (inactive).

As for `CCCCCCCCCCCCCCCC(=O)SCCOP(=O)(O)OCC[N+](C)(C)C`, the EC50 was > 11.2 µM (inactive).
